Read-outs that look alike come from different tables or passages of the source.
Details: saturated

Cc1cc2c(s1)Nc1ccccc1N=C2N1CCN(C)CC1 [Olanzapine, 2-methyl-4-(4-methyl-1-piperazinyl)-10H-thieno[2,3-b] [1,5]benzodiazepine]
Appearance (20% Dimethylacetamide/80% PEG 200): Clear amber solution
Appearance (40% Dimethylacetamide/60% PEG 200): Clear amber solution
Appearance (60% Dimethylacetamide/40% PEG 200): Clear dark amber solution
Appearance (80% Dimethylacetamide/20% PEG 200): Clear dark amber solution
Appearance (100% PEG 200): Clear amber solution

Reference: patent US12171868B2 (Neurelis, Inc., priority 2022, dated 2024)
